The text below walks through data of patent publication US8188059B2, “Compounds and methods for modulating expression of GCGR” (Isis Pharmaceuticals, Inc., priority 2006, dated 2012).

Strand notation (5' to 3'): a small letter for the sugar, then the base; units joined by * are phosphorothioate-linked, units joined directly phosphodiester-linked; [ ] holds rarer units or linkages, { } end groups; capitals alone tell only the bases. e = 2'-O-(2-methoxyethyl) (MOE); [5mC] = 5-methylcytosine; d = 2'-deoxy (DNA)

One data set concerns DGAT2 mRNA. Kind of data set: Antisense inhibition of DGAT2 in A10 cells at 75 nM (Example 22, Table 81). The data set is classed as cell-based, rat. The note with it: approximately 24 hours. Here is the method:
Short antisense compounds targeted to a DGAT2 nucleic acid were tested for their effects on DGAT2 mRNA in vitro. Cultured A10 cells in a 96-well plate were treated with 75 nM of short antisense compound. After a treatment period of approximately 24 hours, RNA was isolated from the cells and DGAT2 mRNA levels were measured by quantitative real-time PCR, as described herein. DGAT2 mRNA levels were adjusted according to total RNA content as measured by RIBOGREEN®. […]

The subject of data set [1] is rat DGAT2 mRNA. Put plainly: Dose-dependent inhibition of DGAT2 in A10 cells, 0.62-150 nM (Example 22, Table 83). It is filed as cell-based. Here is the method:
Additional short antisense compounds targeted to DGAT2 mRNA were tested in vitro. A10 cells were prepared as described above and treated with 0.62, 1.85, 5.56, 16.67, 50.0, and 150.0 nM short antisense compounds to determine if DGAT2 inhibition occurs in a dose-dependent manner. DGAT2 mRNA was measured using quantitative real-time PCR, as described herein. […] Results are presented as percent inhibition of rat DGAT2, relative to untreated control cells.

In data set [2] the test system is rat DGAT2 mRNA. Put plainly: Dose-dependent inhibition of DGAT2 in A10 cells, 6.25-200 nM (Example 22, Table 82). It is filed as cell-based. Here is the method: Additional short antisense compounds targeted to DGAT2 mRNA were tested in vitro in a dose-response experiment. A10 cells were prepared as described above and treated with 6.25, 12.5, 25.0, 50.0, 100.0, and 200.0 nM short antisense compounds to determine if DGAT2 inhibition occurs in a dose-dependent manner. […] Results are presented as percent inhibition, relative to untreated control cells.

A further data set relates to rat SGLT2 mRNA. Put plainly: Rat SGLT2 mRNA levels in kidney, 1-10-1 and 1-10-2 MOE gapmers, Sprague-Dawley rats (Example 13, Table 63). The data set is classed as in vivo. An excerpt: 1-10-1 and 1-10-2 MOE gapmer antisense compounds, provided in Table 62, were designed to target different regions of the mouse or rat SGLT2 RNA. All short antisense compounds in Table 62 are chimeric oligonucleotides (“gapmers”) either 12 or 13 nucleotides in length, composed of a central “gap” segment consisting of ten 2′-deoxynucleotides, which are flanked on the 5′ side by a one-nucleoside “wing” and on the 3′ side by a two or one-nucleotide “wing”. […] All cytidine residues are 5-methylcytidines.
The short antisense compounds were analyzed for their effect on rat SGLT2 mRNA levels. Data are ranges taken from three experiments in which Male Sprague-Dawley rats (170-200 g) were dosed twice per week for three weeks with 450, 150 or 50 nmol/kg of either a 1-10-1 or 1-10-2 MOE gapmer given by intraperitoneal injection. Rats were sacrificed 48 hours following last administration and evaluated for SGLT2 mRNA levels in kidney. Target levels were determined by RT, real-time PCR as described by other examples herein. PCR results were normalized to an internal ISIS control.

Setting [3] is: 50 nmol/kg i.p. twice per week for three weeks.
The mark [4] stands for this setting: 150 nmol/kg i.p. twice per week for three weeks.
[5] abbreviates: 450 nmol/kg i.p. twice per week for three weeks.

With “372580 (antisense eG*eG*dT*dT*dG*dT*dG*dT*dG*dT*d[5mC]*dT*eT*e[5mC]) [compound 372580]”, in the data set with DGAT2 mRNA, the “DGAT2 mRNA, % Control” value is given as 48%. For the same substance, the “percent inhibition of rat DGAT2” value in the data set on rat DGAT2 mRNA [1] (0.62 nM) turned out to be 0; in the data set with rat DGAT2 mRNA [1] (1.85 nM), 5; with rat DGAT2 mRNA [1] (5.56 nM), 5; with rat DGAT2 mRNA [1] (16.67 nM), 3; in the data set on rat DGAT2 mRNA [1] (50 nM) it was 16; with rat DGAT2 mRNA [1] (150 nM), 42.

For the substance “372586 (antisense eG*eT*dT*d[5mC]*d[5mC]*dT*dG*dG*dT*dG*dG*dT*e[5mC]*eA) [compound 372586]”, in the data set with DGAT2 mRNA, the “DGAT2 mRNA, % Control” value was 40%. The “percent inhibition of DGAT2” value in the data set with rat DGAT2 mRNA [2] (6.25 nM) stood at 19; with rat DGAT2 mRNA [2] (12.5 nM) it was 0; in the data set with rat DGAT2 mRNA [2] (50.0 nM), 22; with rat DGAT2 mRNA [2] (100.0 nM), 45; in the data set on rat DGAT2 mRNA [2] (200.0 nM) it was 77; in the data set with rat DGAT2 mRNA [2] ([…]), 7. Besides, the “percent inhibition of rat DGAT2” value is 0 in the data set on rat DGAT2 mRNA [1] (0.62 nM); 0 in the data set with rat DGAT2 mRNA [1] (1.85 nM); 0 in the data set on rat DGAT2 mRNA [1] (5.56 nM); 0 with rat DGAT2 mRNA [1] (16.67 nM); 7 in the data set with rat DGAT2 mRNA [1] (50 nM); 55 in the data set on rat DGAT2 mRNA [1] (150 nM).

For the substance “372594 (antisense eA*e[5mC]*dA*dG*dA*dA*dG*dG*d[5mC]*dA*d[5mC]*d[5mC]*e[5mC]*eA) [compound 372594]”, in the data set on DGAT2 mRNA, the “DGAT2 mRNA, % Control” value amounted to 77%. The “percent inhibition of rat DGAT2” value came to 0 with rat DGAT2 mRNA [1] (0.62 nM); 0 in the data set on rat DGAT2 mRNA [1] (1.85 nM); 0 in the data set with rat DGAT2 mRNA [1] (5.56 nM); 0 in the data set with rat DGAT2 mRNA [1] (16.67 nM); 2 in the data set with rat DGAT2 mRNA [1] (50 nM); 15 in the data set with rat DGAT2 mRNA [1] (150 nM).

Take “372602 (antisense e[5mC]*e[5mC]*dA*dG*dG*d[5mC]*dA*dT*dG*dG*dA*dG*e[5mC]*eT) [compound 372602]”: the “DGAT2 mRNA, % Control” value in the data set with DGAT2 mRNA was determined as 39%. Besides, the “percent inhibition of DGAT2” value in the data set with rat DGAT2 mRNA [2] (6.25 nM) came out at 0; with rat DGAT2 mRNA [2] (12.5 nM) it was 0; in the data set with rat DGAT2 mRNA [2] (50.0 nM), 18; in the data set on rat DGAT2 mRNA [2] (100.0 nM), 47; in the data set on rat DGAT2 mRNA [2] (200.0 nM), 76; in the data set with rat DGAT2 mRNA [2] ([…]), 0. The “percent inhibition of rat DGAT2” value in the data set on rat DGAT2 mRNA [1] (0.62 nM) worked out at 0; in the data set on rat DGAT2 mRNA [1] (1.85 nM) it was 0; with rat DGAT2 mRNA [1] (5.56 nM), 10; in the data set with rat DGAT2 mRNA [1] (16.67 nM), 0; in the data set on rat DGAT2 mRNA [1] (50 nM), 19; in the data set with rat DGAT2 mRNA [1] (150 nM) it was 51.

As to “372618 (antisense eG*eT*dG*dG*dT*dA*d[5mC]*dA*dG*dG*dT*d[5mC]*eG*eA) [compound 372618]”, the “DGAT2 mRNA, % Control” value in the data set on DGAT2 mRNA is on record as 29%. Moreover, the “percent inhibition of DGAT2” value is reported as 0 in the data set on rat DGAT2 mRNA [2] (6.25 nM); 5 in the data set with rat DGAT2 mRNA [2] (12.5 nM); 27 with rat DGAT2 mRNA [2] (50.0 nM); 65 in the data set with rat DGAT2 mRNA [2] (100.0 nM); 80 in the data set with rat DGAT2 mRNA [2] (200.0 nM); 0 with rat DGAT2 mRNA [2] ([…]). The “percent inhibition of rat DGAT2” value in the data set with rat DGAT2 mRNA [1] (0.62 nM) amounted to 0; in the data set with rat DGAT2 mRNA [1] (1.85 nM), 0; in the data set with rat DGAT2 mRNA [1] (5.56 nM) it was 0; with rat DGAT2 mRNA [1] (16.67 nM) it was 0; in the data set on rat DGAT2 mRNA [1] (50 nM), 30; with rat DGAT2 mRNA [1] (150 nM), 60.

As for “372624 (antisense eT*eG*dG*dT*d[5mC]*dT*dT*dG*dT*dG*dA*dT*eT*eG) [compound 372624]”, the “DGAT2 mRNA, % Control” value in the data set with DGAT2 mRNA came out at 56%. Moreover, the “percent inhibition of rat DGAT2” value in the data set on rat DGAT2 mRNA [1] (0.62 nM) is reported as 0; in the data set with rat DGAT2 mRNA [1] (1.85 nM), 0; in the data set with rat DGAT2 mRNA [1] (5.56 nM), 0; in the data set with rat DGAT2 mRNA [1] (16.67 nM) it was 1; in the data set on rat DGAT2 mRNA [1] (50 nM) it was 16; in the data set with rat DGAT2 mRNA [1] (150 nM) it was 38.

As for “ISIS 382675 (antisense eT*dA*dG*d[5mC]*d[5mC]*dA*d[5mC]*d[5mC]*dA*dA*d[5mC]*eT*eG)”, the “% change in SGLT2 expression relative to saline” value with rat SGLT2 mRNA (setting [3]) is given as −50%; with rat SGLT2 mRNA (setting [4]), −65%; in the data set on rat SGLT2 mRNA (setting [5]), −80%.

“ISIS 382677: SGLT2; GGCATGAGCTTCA 1-10-2 MOE (antisense eG*dG*d[5mC]*dA*dT*dG*dA*dG*d[5mC]*dT*dT*e[5mC]*eA)”: the “% change in SGLT2 expression relative to saline” value is listed as −40% with rat SGLT2 mRNA (setting [3]), −60% in the data set on rat SGLT2 mRNA (setting [4]) and −75% in the data set on rat SGLT2 mRNA (setting [5]).
